Test system: anti-mitragynine antibody
Experiment: Cross reactivity of the anti-mitragynine antibody against kratom alkaloids and mitragynine metabolites
Format: binding, Balb/c mice
Conditions: for Cross Reactivity (%): tested concentration (ng/mL): Mitragynine 50, 7-hydroxy mitragynine 35,000-40,000, Paynantheine 25,000-35,000, Speciociliatine 25,000-35,000, 16-carboxy mitragynine 300-360, 9-Hydroxycorynantheidine 3,125-4,000; for cross reactivity (in words): metabolites of mitragynine, antibody derived from the BSA immunogen
Description: In a particular embodiment of the invention, the BSA-containing immunogen of Example 4 (Compound 6) was administered to Balb/c mice in a series of injections as is routine in the art. Alternatively, other mammals are suitable for antibody production. Screening of anti-serum samples taken from the immunized mice was performed to assess antibody titer and to evaluate the ability of antibodies in the samples to bind to enzyme-donor conjugate described in Example 6.
In particular, β-galactosidase enzyme donor polypeptide fragment combines with a β-galactosidase enzyme acceptor fragment to form active β-galactosidase enzyme. The active enzyme complex is capable of transforming a substrate into a product that is differentially detectable. Usually, the product is a different color from the substrate and is quantified using spectrophotometric methods. […] Therefore, the enzyme-catalyzed reaction rate is directly proportional to the concentration of target analyte present in the specimen tested. A preferred β-galactosidase enzyme donor is ED28, a polypeptide containing residues 6-45 of β-galactosidase, with cysteines at positions 1 and 46 (relative to the numbering of the original β-galactosidase fragment).
The cross reactivity of the anti-mitragynine antibody derived from the immunogen described above was tested against certain kratom alkaloids and metabolites of mitragynine shown below.

| SMILES | Cross Reactivity (%) | cross reactivity (in words) |
| --- | --- | --- |
| C=C[C@H]1CN2CCc3c([nH]c4cccc(OC)c34)[C@@H]2C[C@@H]1/C(=C\OC)C(=O)OC [Paynantheine] | ≤0.2% |  |
| CC[C@@H]1CN2CCc3c([nH]c4cccc(O)c34)[C@@H]2C[C@@H]1/C(=C\OC)C(=O)OC [9-Hydroxycorynantheidine, (E)-2-[(25,35,12b5)-3-ethyl-8-hydroxy-1,2,3,4,6,7,12,12b-octahydroindolo [2,3-a]quinozilizin-2-yl]-3-methoxy propenoic acid methyl ester] | 1.25-1.6% | low levels of cross reactivity |
| CC[C@@H]1CN2CC[C@@]3(O)C(=Nc4cccc(OC)c43)[C@@H]2C[C@@H]1/C(=C\OC)C(=O)OC [7-hydroxy mitragynine] | ≤0.2% |  |
| CC[C@@H]1CN2CCc3c([nH]c4cccc(OC)c34)[C@@H]2C[C@@H]1/C(=C\OC)C(=O)OC [Mitragynine, methyl (E)-2-[(2S,3S,12bS)-3-ethyl-8-methoxy-1,2,3,4,6,7,12,12b-octahydroindolo[2,3-a]quinolizin-2-yl]-3-methoxyprop-2-enoate] | 100% |  |
| CC[C@@H]1CN2CCc3c([nH]c4cccc(OC)c34)[C@H]2C[C@@H]1/C(=C\OC)C(=O)OC [Speciociliatine] | ≤0.2% |  |
| CC[C@@H]1CN2CCc3c([nH]c4cccc(OC)c34)[C@@H]2C[C@@H]1/C(=C\OC)C(=O)O [16-carboxy mitragynine] | 13.9-16.7% | low levels of cross reactivity |
